Reference: US10196556B2, “Surfactant composition” (RHODIA OPERATIONS, priority 2012, dated 2019)
Where two headings read alike, the source gives them in different places.

Test: Static foam test (Waring blender), foam persistence
Assay type: physicochemical
Conditions: for Foam Volume: ambient temperature; for Foam Quality (%): from flash foam volume and 200 ml solution volume
Experimental: In order to perform static foam testing, 10% aqueous stock solutions of the surfactant compositions were prepared in distilled water. These were added to 10% w/w aqueous sodium chloride solution, such that the concentration of the surfactant in the brine was 1000 ppm.
Surfactant compositions according to the invention were benchmarked against the individual surfactants. A Waring type blender was used.
The flash foam volumes were measured by taking 200 ml of a surfactant composition according to the invention, subjecting it to high shear for 30 seconds at ambient temperature (20° C.) and then transferring the foam immediately to a measuring cylinder (1000 ml) for measurement. This initial volume was the flash volume. The foam and liquid volume was monitored for a further 10 minutes.
The ‘half-life’ of the foam was defined as the time taken for 100 ml of fluid to drain from the foam. Without being bound by theory, an increase in the half-life corresponds to a reduction in the liquid drainage rate and reflects the texture of the foam. Denser foams, as a rule, tend to take longer to drain and therefore are more persistent.
Static foam tests are a rapid and relatively straightforward method to screen the foam performance of surfactants. The method provides information on the stability and quality, i.e. texture (structure), of the foam produced in a Waring blender. The mechanical properties of the foam lamellae and foam structure are determined to some extent by the packing of the surfactant molecules at the gas/liquid interface. The foam structure influences liquid drainage rates and therefore, the persistence or stability of the foam.
Surfactant solutions (200 ml) were subjected to high shear for 30 seconds at ambient temperatures and the foam transferred immediately to a measuring cylinder (1000 ml). The foam and liquid volume was monitored for a further 10 minutes. 10% active aqueous stock solutions of the surfactants were prepared in distilled water and these were added to 10% w/w aqueous sodium chloride solution. The concentration of the surfactant in the brine was 1000 ppm.
The initial foam volume is also called the ‘flash’ foam.

[1] = 0 s (flash foam), 1000 ppm surfactant in 10% w/w NaCl
[2] = 120 s, 1000 ppm surfactant in 10% w/w NaCl
[3] = 240 s, 1000 ppm surfactant in 10% w/w NaCl
[4] = 360 s, 1000 ppm surfactant in 10% w/w NaCl
[5] = 480 s, 1000 ppm surfactant in 10% w/w NaCl
[6] = 600 s, 1000 ppm surfactant in 10% w/w NaCl
[7] = 1000 ppm surfactant in 10% w/w NaCl
[8] = time for 100 ml of fluid to drain from the foam, 1000 ppm surfactant in 10% w/w NaCl

| Foam Volume [1] | Foam Volume [2] | Foam Volume [3] | Foam Volume [4] | Foam Volume [5] | Foam Volume [6] | Foam Quality (%) [7] | Half-life [8] | Half-life | Substance |
| --- | --- | --- | --- | --- | --- | --- | --- | --- | --- |
| 670 mL | 524 mL | 486 mL | 430 mL | 360 mL | 350 mL | 70.1% | 4.5 min |  | Lauramidopropyl betaine [Mackam LMB] |
| 600 mL | 406 mL | 350 mL | 280 mL | 240 mL | 210 mL | 66.7% | 3.2 min |  | Lauramidopropyl hydroxysultaine [Mackam LSB-50] |
|  |  |  |  |  |  |  |  | 0.4 min | Sodium hydroxypropyl sulfonate lauryl glucose crosspolymer [PolySugaNate 160P] |
